Measurements as given in paper PMC8819291, “Adaptively evolved human oral actinomyces‐sourced defensins show therapeutic potential” (EMBO Molecular Medicine, 2021).
Read-outs that look alike come from different tables or passages of the source. Where a SMILES comes first, the peptide text is derived from it. Bridges are numbered along the chain shown (N, C = ends).

Experiments:
Nav1.5 = Nav1.5 (Homo sapiens, UniProt Q14524); conditions: 100 μM AMSIN
Method: (§1) For the expression of Nav1.5, Kv1.4, Kv1.5, Kv2.1, Kv4.3, and hERG in Xenopus oocytes, the linearized plasmids were transcribed using the T7 or SP6 mMESSAGE‐mMACHINE transcription kit (Ambion). The harvesting of stage V–VI oocytes from an anesthetized female Xenopus laevis frog was previously described (Zhu et al, [2020]). Oocytes were injected with 50 nl of cRNA at a concentration of 1 ng/nl using a micro‐injector (Drummond Scientific, USA). The oocytes were incubated in a solution containing (in mM): NaCl, 96; KCl, 2; CaCl2, 1.8; MgCl2, 2 and HEPES, 5 (pH 7.4), supplemented with 50 mg/l gentamycin sulfate. Two‐electrode voltage‐clamp recordings were performed at room temperature (18–22°C) using a Geneclamp 500 amplifier (Axon Instruments, USA) controlled by a pClamp data acquisition system (Axon Instruments, USA). Whole‐cell currents from oocytes were recorded 1–4 days after injection. Bath solution composition was (in mM): NaCl, 96; KCl, 2; CaCl2, 1.8; MgCl2, 2 and HEPES, 5 (pH 7.4). Voltage and current electrodes were filled with 3 M KCl. Resistances of both electrodes were kept between 0.7 and 1.5 M Ω. Elicited currents were sampled at 1 kHz and filtered at 0.5 kHz (for potassium currents) or sampled at 20 kHz and filtered at 2 kHz (for sodium currents) using a four‐pole low‐pass Bessel filter. […] Current traces of hERG channels were elicited by applying a +40 mV prepulse for 2 s followed by a step to −120 mV for 2 s.

Kv1.4 = Kv1.4 (Homo sapiens, UniProt P22459); conditions: 100 μM AMSIN
Sequence of Kv1.4 (P22459 whole entry): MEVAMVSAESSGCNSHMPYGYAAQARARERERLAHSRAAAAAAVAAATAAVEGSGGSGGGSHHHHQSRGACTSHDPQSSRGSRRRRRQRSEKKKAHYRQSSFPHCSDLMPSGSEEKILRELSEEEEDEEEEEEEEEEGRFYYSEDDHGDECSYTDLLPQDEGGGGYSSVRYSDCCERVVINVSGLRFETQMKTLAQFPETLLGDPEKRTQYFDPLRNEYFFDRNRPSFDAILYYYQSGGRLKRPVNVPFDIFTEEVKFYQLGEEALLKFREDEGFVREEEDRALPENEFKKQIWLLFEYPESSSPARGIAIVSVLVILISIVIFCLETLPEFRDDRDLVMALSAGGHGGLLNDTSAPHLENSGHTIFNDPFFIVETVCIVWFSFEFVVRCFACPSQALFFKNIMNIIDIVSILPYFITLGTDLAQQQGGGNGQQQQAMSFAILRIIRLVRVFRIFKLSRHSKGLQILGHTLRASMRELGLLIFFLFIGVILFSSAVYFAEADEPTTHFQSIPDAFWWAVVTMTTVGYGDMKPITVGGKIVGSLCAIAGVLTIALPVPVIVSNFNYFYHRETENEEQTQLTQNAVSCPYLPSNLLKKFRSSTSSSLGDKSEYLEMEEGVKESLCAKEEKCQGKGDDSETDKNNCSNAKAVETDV
Method: as §1

Kv1.5 = Kv1.5 (Homo sapiens, UniProt P22460); conditions: 100 μM AMSIN
Sequence of Kv1.5 (P22460 whole entry): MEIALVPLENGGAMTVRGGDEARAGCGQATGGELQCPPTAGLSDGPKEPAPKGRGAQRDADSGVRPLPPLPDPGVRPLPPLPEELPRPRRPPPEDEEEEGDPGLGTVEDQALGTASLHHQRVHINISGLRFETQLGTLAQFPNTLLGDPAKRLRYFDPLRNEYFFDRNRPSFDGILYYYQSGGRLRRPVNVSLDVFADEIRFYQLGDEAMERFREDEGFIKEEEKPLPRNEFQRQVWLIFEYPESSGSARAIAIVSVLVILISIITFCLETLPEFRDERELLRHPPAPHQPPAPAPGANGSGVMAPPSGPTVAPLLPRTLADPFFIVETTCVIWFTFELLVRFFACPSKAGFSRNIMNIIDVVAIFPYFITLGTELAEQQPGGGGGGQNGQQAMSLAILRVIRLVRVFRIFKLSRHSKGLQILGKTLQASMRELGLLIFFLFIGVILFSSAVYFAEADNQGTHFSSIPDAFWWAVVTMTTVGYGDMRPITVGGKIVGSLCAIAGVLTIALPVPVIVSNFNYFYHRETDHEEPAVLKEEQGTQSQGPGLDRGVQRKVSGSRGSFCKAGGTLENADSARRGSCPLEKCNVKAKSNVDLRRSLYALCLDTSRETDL
Method: as §1

Kv4.3 = Kv4.3 (Homo sapiens, UniProt Q9UK17); conditions: 100 μM AMSIN
Sequence of Kv4.3 (Q9UK17 whole entry): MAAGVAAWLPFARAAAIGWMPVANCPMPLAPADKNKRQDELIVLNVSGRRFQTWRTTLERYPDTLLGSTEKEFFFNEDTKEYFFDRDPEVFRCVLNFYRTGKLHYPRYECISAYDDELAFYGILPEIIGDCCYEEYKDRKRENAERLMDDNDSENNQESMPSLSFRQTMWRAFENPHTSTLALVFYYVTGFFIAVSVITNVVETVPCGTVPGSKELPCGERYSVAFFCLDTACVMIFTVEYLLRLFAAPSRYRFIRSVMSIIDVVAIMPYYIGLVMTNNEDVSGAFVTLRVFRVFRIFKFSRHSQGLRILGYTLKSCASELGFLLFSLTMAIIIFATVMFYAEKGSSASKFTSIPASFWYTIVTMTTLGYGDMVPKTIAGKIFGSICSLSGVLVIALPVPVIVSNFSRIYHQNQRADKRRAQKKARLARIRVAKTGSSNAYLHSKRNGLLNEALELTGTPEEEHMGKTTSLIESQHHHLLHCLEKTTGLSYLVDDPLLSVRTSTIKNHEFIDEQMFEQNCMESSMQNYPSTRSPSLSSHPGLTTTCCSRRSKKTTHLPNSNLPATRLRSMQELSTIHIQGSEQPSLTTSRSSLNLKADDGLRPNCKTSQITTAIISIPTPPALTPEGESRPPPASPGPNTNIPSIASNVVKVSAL
Method: as §1

Kv2.1 = Kv2.1 (Homo sapiens, UniProt Q14721); conditions: 100 μM AMSIN
Sequence of Kv2.1 (Q14721 whole entry): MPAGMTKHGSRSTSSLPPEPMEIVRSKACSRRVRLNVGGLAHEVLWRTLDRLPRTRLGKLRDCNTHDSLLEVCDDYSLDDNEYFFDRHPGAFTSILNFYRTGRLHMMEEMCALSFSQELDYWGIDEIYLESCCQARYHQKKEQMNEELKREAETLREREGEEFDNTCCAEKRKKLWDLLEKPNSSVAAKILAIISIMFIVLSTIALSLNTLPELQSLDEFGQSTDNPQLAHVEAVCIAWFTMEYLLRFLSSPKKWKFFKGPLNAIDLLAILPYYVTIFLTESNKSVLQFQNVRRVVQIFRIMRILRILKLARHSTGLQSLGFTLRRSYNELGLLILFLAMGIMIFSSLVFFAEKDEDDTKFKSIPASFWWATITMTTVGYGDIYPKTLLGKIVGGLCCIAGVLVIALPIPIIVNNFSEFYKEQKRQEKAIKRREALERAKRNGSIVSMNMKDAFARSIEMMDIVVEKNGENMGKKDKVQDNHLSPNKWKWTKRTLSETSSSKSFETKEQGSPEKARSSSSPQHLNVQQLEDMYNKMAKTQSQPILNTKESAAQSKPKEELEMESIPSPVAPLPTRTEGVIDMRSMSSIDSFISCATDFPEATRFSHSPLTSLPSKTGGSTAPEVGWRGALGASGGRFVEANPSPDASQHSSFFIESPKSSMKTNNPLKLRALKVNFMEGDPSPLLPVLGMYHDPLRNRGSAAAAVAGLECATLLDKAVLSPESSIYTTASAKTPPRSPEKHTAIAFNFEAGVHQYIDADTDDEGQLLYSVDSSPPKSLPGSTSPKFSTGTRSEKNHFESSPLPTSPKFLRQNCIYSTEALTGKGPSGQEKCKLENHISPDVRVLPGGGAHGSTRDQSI
Method: as §1

hERG = hERG (Homo sapiens, UniProt Q12809); conditions: 100 μM AMSIN
Method: as §1

HL‐60 = assay: Cytotoxicity assay (CCK-8); type: cell-based, human; conditions: 72 h
SM membrane = assay: Membrane permeability assay (propidium iodide); type: cell-based, Streptococcus mutans; conditions: 10 × C L; 5 × 10^5 cells in PBS pH 7.3, 1 μM PI
Method: Fluorescence was measured with the F‐4500 FL spectrophotometer (Hitachi High‐Technology Company, Japan).

[1] = tested on: fresh erythrocytes from the female ICR mice; assay: Hemolysis assay; type: cell-based, Mus musculus
Method: Hemolytic activity of peptides against fresh erythrocytes from the female ICR mice (Mus musculus) (25 g, 6 weeks of age) was assayed according to the standard method (Zhu et al, [2012]). Peptides were diluted with 0.9% NaCl to the indicated concentration. The percentage of hemolysis is determined as (A pep–A blank)/(A tot–A blank) × 100, in which “A” represents absorbance measured at 570 nm. A blank and A pep were evaluated in the absence or presence of peptides. One hundred percent hemolysis (A tot) was obtained in the presence of 1% Triton X‐100.

salmon sperm DNA = conditions: 1.0 nmol AMSIN + salmon sperm DNA 6.6 mg/ml
Method: The rationality behind this experiment is that if a reduction in the inhibition‐zone size in the presence of DNA, it would indicate that the peptide binding to the DNA causes the loss of antibacterial activity. […] Inhibition zones were recorded and compared with the control without the DNA.

[2] = tested on: SM (Streptococcus mutans); assay: Killing kinetics assay; type: cell-based; conditions: peptide dose 4 × C L
Method: In brief, SM was grown overnight in broth medium and diluted in fresh medium to 1 × 10^8 CFU/ml. […] Viable cell counts were obtained after 24 h of incubation at 37°C. Bacterial growth in the medium without peptides was used as a control.

[3] = undiluted human serum (Human Serum AB), 0, 24 and 48 h, 37°C; read-out MRSA P1374, 1.0 nmol/well
HEK 293 = conditions: 25 µM (Appendix Fig S14), 72 h, CCK‐8
Method: Cells were cultured at 37°C in 5% CO2: 95% air incubator in Minimum Essential Medium (MEM) supplemented with 10% (v/v) fetal bovine serum (FBS). Cells were seeded at a density of 7 × 10^3 cells per well in 96‐well plates and incubated for 24 h. Media were then replaced with 200 μl of media containing various concentrations of peptides. The cells were incubated for 72 h and cytotoxicity was assessed with CCK‐8 Kits (Dojindo Molecular Technologies, Tokyo, Japan). Absorbance was detected at 450 nm with the TECAN Infinite M200 microplate reader (Tecan, Durham, USA).

gram‐positive bacteria = assay: Inhibition-zone assay, groups of strains; type: cell-based
Description: Bacterial media used here included: Luria‐Bertani (LB) medium, THY medium (30 g Todd Hewitt broth and 5 g Yeast extract per liter), and tryptic soy broth (TSB) (Oxoid, Basingstoke, UK); Broth medium and brain–heart infusion (BHI) medium (Beijing Landbridge technology Limited by Share Ltd., Beijing, China); Potato dextrose (PD) medium (self‐prepared).
In brief, an overnight bacterial culture from a single colony was inoculated into fresh medium and grew to late log‐phase. A 10‐μl aliquot of each culture was diluted in 6‐ml pre‐heated medium containing 0.8% agar. The mixture was spread on a 9‐cm Petri dish, giving a depth of 1 mm. After settling, 3‐mm wells were punched in the plate and then 2‐μl peptide samples of different concentrations were added to each well. The agar plates were incubated overnight at indicated temperatures (Table EV4). A lethal concentration (C L ) was calculated from a plot of d^2 against log n, where d is the diameter (in cm) and n is the amount of sample applied in the well (in nmol). The plot is linear, and thus C L can be calculated from the slope (k) and the intercept (m) of this plot.

Sequence of Nav1.5 (Q14524 whole entry): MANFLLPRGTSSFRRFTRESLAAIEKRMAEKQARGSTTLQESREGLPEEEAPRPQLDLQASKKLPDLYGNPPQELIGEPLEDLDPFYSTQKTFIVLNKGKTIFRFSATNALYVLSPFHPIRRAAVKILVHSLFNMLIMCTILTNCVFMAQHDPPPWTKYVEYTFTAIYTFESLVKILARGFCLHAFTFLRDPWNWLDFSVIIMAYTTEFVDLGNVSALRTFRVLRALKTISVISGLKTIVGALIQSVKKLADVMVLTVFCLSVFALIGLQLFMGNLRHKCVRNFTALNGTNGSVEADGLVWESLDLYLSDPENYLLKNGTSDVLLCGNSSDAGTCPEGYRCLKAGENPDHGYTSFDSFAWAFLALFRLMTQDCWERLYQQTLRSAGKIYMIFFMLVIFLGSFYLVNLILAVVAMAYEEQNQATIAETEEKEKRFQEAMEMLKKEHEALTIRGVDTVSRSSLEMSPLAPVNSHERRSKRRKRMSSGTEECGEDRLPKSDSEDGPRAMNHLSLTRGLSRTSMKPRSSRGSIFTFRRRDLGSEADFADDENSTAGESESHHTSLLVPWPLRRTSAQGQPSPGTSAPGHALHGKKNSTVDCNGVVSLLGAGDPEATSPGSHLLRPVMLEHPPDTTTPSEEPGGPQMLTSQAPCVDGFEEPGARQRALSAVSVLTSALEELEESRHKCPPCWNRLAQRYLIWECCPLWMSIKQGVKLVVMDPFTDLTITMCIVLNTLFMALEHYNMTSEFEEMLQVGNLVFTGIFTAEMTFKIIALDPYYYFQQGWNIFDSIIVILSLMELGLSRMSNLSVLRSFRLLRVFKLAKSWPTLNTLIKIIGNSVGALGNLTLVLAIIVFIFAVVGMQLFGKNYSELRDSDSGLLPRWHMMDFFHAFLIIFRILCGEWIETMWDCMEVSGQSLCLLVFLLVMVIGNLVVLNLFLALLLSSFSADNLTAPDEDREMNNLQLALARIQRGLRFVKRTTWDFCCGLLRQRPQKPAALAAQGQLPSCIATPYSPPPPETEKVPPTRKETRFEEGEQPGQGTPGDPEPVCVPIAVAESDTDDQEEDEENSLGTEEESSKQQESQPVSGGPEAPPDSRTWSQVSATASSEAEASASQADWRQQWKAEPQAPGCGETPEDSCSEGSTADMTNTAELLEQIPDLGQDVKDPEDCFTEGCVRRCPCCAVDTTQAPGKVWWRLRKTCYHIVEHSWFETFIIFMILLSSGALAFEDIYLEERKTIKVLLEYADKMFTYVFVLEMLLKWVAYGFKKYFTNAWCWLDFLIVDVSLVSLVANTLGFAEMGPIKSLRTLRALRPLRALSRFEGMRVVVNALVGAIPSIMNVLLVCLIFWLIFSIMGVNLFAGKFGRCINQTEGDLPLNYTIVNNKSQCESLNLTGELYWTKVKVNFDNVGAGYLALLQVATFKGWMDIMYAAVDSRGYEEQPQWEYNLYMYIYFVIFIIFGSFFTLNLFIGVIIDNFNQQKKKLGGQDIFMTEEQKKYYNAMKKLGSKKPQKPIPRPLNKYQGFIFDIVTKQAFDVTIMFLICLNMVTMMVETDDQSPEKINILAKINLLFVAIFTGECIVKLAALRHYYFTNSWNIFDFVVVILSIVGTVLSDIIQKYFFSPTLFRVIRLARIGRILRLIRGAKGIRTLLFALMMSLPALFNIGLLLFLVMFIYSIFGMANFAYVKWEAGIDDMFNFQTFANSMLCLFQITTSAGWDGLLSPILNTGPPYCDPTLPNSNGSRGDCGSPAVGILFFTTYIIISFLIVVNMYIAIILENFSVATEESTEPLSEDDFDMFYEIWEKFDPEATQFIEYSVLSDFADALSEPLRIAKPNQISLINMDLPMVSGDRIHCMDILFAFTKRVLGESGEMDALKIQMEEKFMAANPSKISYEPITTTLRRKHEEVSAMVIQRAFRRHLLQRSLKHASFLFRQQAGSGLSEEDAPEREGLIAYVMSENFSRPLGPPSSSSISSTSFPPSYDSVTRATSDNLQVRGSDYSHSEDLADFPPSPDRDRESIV

## CC[C@H](C)[C@@H]1NC(=O)[C@H](CCCCN)NC(=O)CNC(=O)[C@H](CCCNC(=N)N)NC(=O)[C@@H]2CSSC[C@H](NC(=O)CNC(=O)[C@H](Cc3ccccc3)NC(=O)CN)C(=O)N3CCC[C@H]3C(=O)N[C@@H](Cc3c[nH]c4ccccc34)C(=O)N[C@@H](CC(N)=O)C(=O)N[C@@H](C)C(=O)N[C@@H](Cc3ccc(O)cc3)C(=O)N[C@@H](CCC(=O)O)C(=O)N[C@H]3CSSC[C@H](NC(=O)[C@H]([C@@H](C)O)NC(=O)[C@H](CCC(N)=O)NC(=O)[C@H](CCCNC(=N)N)NC1=O)C(=O)N[C@@H](Cc1c[nH]cn1)C(=O)N[C@H](C(=O)N[C@@H](Cc1ccc(O)cc1)C(=O)O)CSSC[C@H](NC(=O)[C@H](Cc1c[nH]cn1)NC(=O)[C@H](CCCNC(=N)N)NC(=O)[C@H](CC(=O)O)NC3=O)C(=O)N[C@@H](C(C)C)C(=O)N[C@@H](CO)C(=O)N[C@@H](CCCCN)C(=O)NCC(=O)N[C@@H](Cc1ccc(O)cc1)C(=O)N[C@@H]([C@@H](C)O)C(=O)NCC(=O)NCC(=O)N[C@@H](CC(N)=O)C(=O)N2 [AMSIN] (H-GFGCPWNAYECDRHCVSKGYTGGNCRGKIRQTCHCY-OH; disulfide 4-25, 11-33, 15-35; N-terminus and C-terminus assumed)
Nav1.5
  Effect on channel current: no any effect
Kv1.4
  Effect on channel current: no any effect
Kv1.5
  Effect on channel current: no any effect
Kv4.3
  Effect on channel current: no any effect
Kv2.1
  Effect on channel current: no any effect
hERG
  Effect on channel current: no any effect
HL‐60; 25 μg/mL, replicate 1
  Cellular variability of HL-60 (%): 97%
HL‐60; 25 μg/mL, replicate 2
  Cellular variability of HL-60 (%): 101%
HL‐60; 25 μg/mL, replicate 3
  Cellular variability of HL-60 (%): 108%
HL‐60; 50 μg/mL, replicate 1
  Cellular variability of HL-60 (%): 97%
HL‐60; 50 μg/mL, replicate 2
  Cellular variability of HL-60 (%): 100%
HL‐60; 50 μg/mL, replicate 3
  Cellular variability of HL-60 (%): 103%
HL‐60; 100 μg/mL, replicate 1
  Cellular variability of HL-60 (%): 97%
HL‐60; 100 μg/mL, replicate 2
  Cellular variability of HL-60 (%): 102%
HL‐60; 100 μg/mL, replicate 3
  Cellular variability of HL-60 (%): 106%
SM membrane
  Effect on bacterial membrane integrity (propidium iodide fluorescence): did not impair the integrity of bacterial membrane
[1]; 6.25 μM, absorbance 570 nm, 100% = 1% Triton X‐100, technical replicate 1
  Hemolysis (%): 1.49%
[1]; 6.25 μM, technical replicate 2
  Hemolysis (%): 1.24%
[1]; 6.25 μM, technical replicate 3
  Hemolysis (%): 1.65%
[1]; 12.5 μM, technical replicate 1
  Hemolysis (%): 2.48%
[1]; 12.5 μM, technical replicate 2
  Hemolysis (%): 1.98%
[1]; 12.5 μM, technical replicate 3
  Hemolysis (%): 2.04%
[1]; 25 μM, technical replicate 1
  Hemolysis (%): 6.96%
[1]; 25 μM, technical replicate 2
  Hemolysis (%): 5.2%
[1]; 25 μM, technical replicate 3
  Hemolysis (%): 5.2%
Salmon sperm DNA; replicate 1
  Inhibition zone: 9.5 mm
Salmon sperm DNA; replicate 2
  Inhibition zone: 10 mm
Salmon sperm DNA; replicate 3
  Inhibition zone: 9.5 mm
[2]; 0 min, start 1 × 10^8 CFU/ml
  Viable SM cells in killing kinetics: 8 Log10 (CFU/mL)
[2]; 15 min
  Viable SM cells in killing kinetics: 9 Log10 (CFU/mL)
[2]; 30 min
  Viable SM cells in killing kinetics: 8.9 Log10 (CFU/mL)
[2]; 120 min
  Viable SM cells in killing kinetics: 8.7 Log10 (CFU/mL)
[2]; 240 min
  Viable SM cells in killing kinetics: 8.5 Log10 (CFU/mL)
[3]
  Activity in serum compared with in H2O: slight decrease
HEK 293
  Viability of HEK 293: did not affect the viability
gram‐positive bacteria; SP (strains D39, R6, ST556, and TIGR4)
  Lethal concentrations (C L): about 0.10 μM
gram‐positive bacteria; three oral Streptococcus bacteria (S. mutans, S. salivarius, and S. sanguinis)
  C L: 0.5 to 1.4 µM
